Experimental data taken from US20090281174A1, “SENESCENCE INHIBITOR” (KAO CORPORATION, priority 2006, published 2009).

Tested on: SAM-P1 male mice (mice of senescence-accelerated model)
Assay: Maximum force of soleus muscle under electrical stimulation in senescence-accelerated mice
Assay type: in vivo, mouse
Conditions: after breeding for 9 weeks
Experimental: Thereafter, these mice were divided into the following groups (eight mice in each group): […] The mice of each group were subjected to a physical exercise at 10 m/min for 3 minutes in a running-water pool five times a day and four days a week. After breeding for nine weeks, a soleus muscle was removed from a mouse of each group through dissection and fixed to a transducer (FORT100, product of World Precision Instruments, Inc.) in Krebs solution of 37° C. (aeration: 95%-oxygen, 5%-carbon dioxide). Subsequently, under electrical stimulation (0.5 msec, 140 Hz), the maximum muscle force of the muscle sample was determined.

CC(C)C[C@H](N)C(=O)O [leucine, Leucine]
Maximum soleus muscle force compared with SAM-P1 control group (Dunnet test): No significant difference
Maximum muscle force (soleus muscle, electrical stimulation 0.5 msec 140 Hz, diet 0.35% of each ingredient): 11.1 ± 0.7 g
